Organism: Rattus norvegicus
Assay: DrugMatrix - Regimen: Daily Repeat
Format: toxicity, organism-based, Sprague-Dawley
Parameters: regimen Daily Repeat, gender Male, age 6-8 weeks
Conditions: in vivo, po, route oral GAVAGE, vehicle 100 % WATER; for ABSOLUTE BASOPHIL / ABSOLUTE EOSINOPHIL / ABSOLUTE LYMPHOCYTE / ABSOLUTE MONOCYTE / ABSOLUTE SEGMENTED NEUTROPHIL / BASOPHIL / EOSINOPHIL / ERYTHROCYTE COUNT / HEMATOCRIT / HEMOGLOBIN / LEUKOCYTE COUNT / LYMPHOCYTE / MEAN CORPUSCULAR HEMOGLOBIN / MEAN CORPUSCULAR HEMOGLOBIN CONCENTRATION / MEAN CORPUSCULAR VOLUME / MONOCYTE / NEUTROPHIL / NUCLEATED RED BLOOD CELLS / PLATELET COUNT: tissue Blood; for ALANINE AMINOTRANSFERASE / ALBUMIN / ALKALINE PHOSPHATASE / ASPARTATE AMINOTRANSFERASE / BLOOD UREA NITROGEN / CARBON DIOXIDE / CHLORIDE / CHOLESTEROL / CREATINE PHOSPHOKINASE / CREATININE / GLUCOSE / LACTATE DEHYDROGENASE / LIPASE / PHOSPHORUS / POTASSIUM / SODIUM / TOTAL BILIRUBIN / TOTAL PROTEIN / URIC ACID: tissue Plasma
[1] = 0 mg/kg, 72 h, dose level Control, time 3 day
[2] = 0 mg/kg, 120 h, dose level Control, time 5 day
[3] = 5 mg/kg, 72 h, dose level Low, time 3 day

COc1cc2nc(N3CCN(C(=O)C4COc5ccccc5O4)CC3)nc(N)c2cc1OC (centres undefined) [DOXAZOSIN]
ABSOLUTE BASOPHIL [1]: 0 CELLS/uL | ABSOLUTE EOSINOPHIL [1]: 86.33 CELLS/uL | ABSOLUTE LYMPHOCYTE [1]: 12090.17 CELLS/uL | ABSOLUTE MONOCYTE [1]: 166.67 CELLS/uL | ABSOLUTE SEGMENTED NEUTROPHIL [1]: 1090.17 CELLS/uL | BASOPHIL [1]: 0% | EOSINOPHIL [1]: 0.67% | ERYTHROCYTE COUNT [1]: 5.57 x10E6/uL | HEMATOCRIT [1]: 35.33% | HEMOGLOBIN [1]: 13.83 G/DL | LEUKOCYTE COUNT [1]: 13.43 x10E3/uL | LYMPHOCYTE [1]: 89.83% | MEAN CORPUSCULAR HEMOGLOBIN [1]: 24.88 pg | MEAN CORPUSCULAR HEMOGLOBIN CONCENTRATION [1]: 39.15 G/DL | MEAN CORPUSCULAR VOLUME [1]: 63.52 fL | MONOCYTE [1]: 1.17% | NEUTROPHIL [1]: 8.33% | NUCLEATED RED BLOOD CELLS [1]: 0 /100WBC | PLATELET COUNT [1]: 1181.33 x10E3/uL | ALANINE AMINOTRANSFERASE [1]: 48.33 u/L | ALBUMIN [1]: 4.1 G/DL | ALKALINE PHOSPHATASE [1]: 395 u/L | ASPARTATE AMINOTRANSFERASE [1]: 81.83 u/L | BLOOD UREA NITROGEN [1]: 15.83 mg/dL | CARBON DIOXIDE [1]: 24.17 mmol/L | CHLORIDE [1]: 103.83 MEQ/L | CHOLESTEROL [1]: 63.67 mg/dL | CREATINE PHOSPHOKINASE [1]: 372.83 u/L | CREATININE [1]: 0.18 mg/dL | GLUCOSE [1]: 173.83 mg/dL | LACTATE DEHYDROGENASE [1]: 188.33 u/L | LIPASE [1]: 9.5 u/L | PHOSPHORUS [1]: 11.95 mg/dL | POTASSIUM [1]: 5.99 MEQ/L | SODIUM [1]: 144.43 MEQ/L | TOTAL BILIRUBIN [1]: 0.15 mg/dL | TOTAL PROTEIN [1]: 5.95 G/DL | URIC ACID [1]: 1.82 mg/dL | ABSOLUTE BASOPHIL [2]: 0 CELLS/uL | ABSOLUTE EOSINOPHIL [2]: 26.67 CELLS/uL | ABSOLUTE LYMPHOCYTE [2]: 7583.83 CELLS/uL | ABSOLUTE MONOCYTE [2]: 131.33 CELLS/uL | ABSOLUTE SEGMENTED NEUTROPHIL [2]: 674.83 CELLS/uL | BASOPHIL [2]: 0% | EOSINOPHIL [2]: 0.33% | ERYTHROCYTE COUNT [2]: 5.78 x10E6/uL | HEMATOCRIT [2]: 36.48% | HEMOGLOBIN [2]: 14.03 G/DL | LEUKOCYTE COUNT [2]: 8.42 x10E3/uL | LYMPHOCYTE [2]: 89.83% | MEAN CORPUSCULAR HEMOGLOBIN [2]: 24.3 pg | MEAN CORPUSCULAR HEMOGLOBIN CONCENTRATION [2]: 38.52 G/DL | MEAN CORPUSCULAR VOLUME [2]: 63.15 fL | MONOCYTE [2]: 1.67% | NEUTROPHIL [2]: 8.17% | NUCLEATED RED BLOOD CELLS [2]: 0 /100WBC | PLATELET COUNT [2]: 1186.67 x10E3/uL | ALANINE AMINOTRANSFERASE [2]: 50.17 u/L | ALBUMIN [2]: 4.07 G/DL | ALKALINE PHOSPHATASE [2]: 367.5 u/L | ASPARTATE AMINOTRANSFERASE [2]: 81.67 u/L | BLOOD UREA NITROGEN [2]: 16.17 mg/dL | CARBON DIOXIDE [2]: 32.33 mmol/L | CHLORIDE [2]: 101.5 MEQ/L | CHOLESTEROL [2]: 65.33 mg/dL | CREATINE PHOSPHOKINASE [2]: 255.33 u/L | CREATININE [2]: 0.17 mg/dL | GLUCOSE [2]: 139.33 mg/dL | LACTATE DEHYDROGENASE [2]: 95 u/L | LIPASE [2]: 10.5 u/L | PHOSPHORUS [2]: 10.38 mg/dL | POTASSIUM [2]: 6.11 MEQ/L | SODIUM [2]: 145.55 MEQ/L | TOTAL BILIRUBIN [2]: 0.17 mg/dL | TOTAL PROTEIN [2]: 5.98 G/DL | URIC ACID [2]: 0.93 mg/dL | ABSOLUTE BASOPHIL [3]: 0 CELLS/uL | ABSOLUTE EOSINOPHIL [3]: 0 CELLS/uL | ABSOLUTE LYMPHOCYTE [3]: 13989.67 CELLS/uL | ABSOLUTE MONOCYTE [3]: 387.67 CELLS/uL | ABSOLUTE SEGMENTED NEUTROPHIL [3]: 2189.33 CELLS/uL | BASOPHIL [3]: 0% | EOSINOPHIL [3]: 0% | ERYTHROCYTE COUNT [3]: 5.22 x10E6/uL | HEMATOCRIT [3]: 34.5% | HEMOGLOBIN [3]: 13.43 G/DL | LEUKOCYTE COUNT [3]: 16.57 x10E3/uL | LYMPHOCYTE [3]: 84.33% | MEAN CORPUSCULAR HEMOGLOBIN [3]: 25.77 pg | MEAN CORPUSCULAR HEMOGLOBIN CONCENTRATION [3]: 38.97 G/DL | MEAN CORPUSCULAR VOLUME [3]: 66.17 fL | MONOCYTE [3]: 2.33% | NEUTROPHIL [3]: 13.33% | NUCLEATED RED BLOOD CELLS [3]: 0 /100WBC | PLATELET COUNT [3]: 1263.33 x10E3/uL | ALANINE AMINOTRANSFERASE [3]: 47.33 u/L | ALBUMIN [3]: 3.93 G/DL | ALKALINE PHOSPHATASE [3]: 317.67 u/L | ASPARTATE AMINOTRANSFERASE [3]: 97 u/L | BLOOD UREA NITROGEN [3]: 16.33 mg/dL | CARBON DIOXIDE [3]: 22 mmol/L | CHLORIDE [3]: 103 MEQ/L | CHOLESTEROL [3]: 59.67 mg/dL | CREATINE PHOSPHOKINASE [3]: 763 u/L | CREATININE [3]: 0.18 mg/dL | GLUCOSE [3]: 187 mg/dL | LACTATE DEHYDROGENASE [3]: 544.33 u/L | LIPASE [3]: 9 u/L | PHOSPHORUS [3]: 11.9 mg/dL | POTASSIUM [3]: 5.79 MEQ/L | SODIUM [3]: 142.7 MEQ/L | TOTAL BILIRUBIN [3]: 0.17 mg/dL | TOTAL PROTEIN [3]: 5.73 G/DL | URIC ACID [3]: 1.7 mg/dL

From ChEMBL document CHEMBL3885881, “DrugMatrix”
